Results as given in patent publication US9012651B2, “TRPV3 modulators” (AbbVie Inc., priority 2011, dated 2015).

Biological target: human TRPV3 receptors (Homo sapiens (Human), UniProt Q8NET8)
Assay: Calcium flux assay (FLIPR TETRA), inhibition of the 2-APB response
Assay type: cell-based
Conditions: recombinant HEK293 cells stably expressing TRPV3, Calcium-4 dye, 2-APB at its EC80
Procedure, shortened: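 HEK293 cells stably expressing human and mouse TRPV3, plated the day before and dye-loaded 90-120 min in the dark, read on FLIPR Tetra. Peak fluorescence increase over baseline was expressed as percent of the maximal 2-APB response without compound.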

human TRPV3 receptors, sequence (Q8NET8 whole entry): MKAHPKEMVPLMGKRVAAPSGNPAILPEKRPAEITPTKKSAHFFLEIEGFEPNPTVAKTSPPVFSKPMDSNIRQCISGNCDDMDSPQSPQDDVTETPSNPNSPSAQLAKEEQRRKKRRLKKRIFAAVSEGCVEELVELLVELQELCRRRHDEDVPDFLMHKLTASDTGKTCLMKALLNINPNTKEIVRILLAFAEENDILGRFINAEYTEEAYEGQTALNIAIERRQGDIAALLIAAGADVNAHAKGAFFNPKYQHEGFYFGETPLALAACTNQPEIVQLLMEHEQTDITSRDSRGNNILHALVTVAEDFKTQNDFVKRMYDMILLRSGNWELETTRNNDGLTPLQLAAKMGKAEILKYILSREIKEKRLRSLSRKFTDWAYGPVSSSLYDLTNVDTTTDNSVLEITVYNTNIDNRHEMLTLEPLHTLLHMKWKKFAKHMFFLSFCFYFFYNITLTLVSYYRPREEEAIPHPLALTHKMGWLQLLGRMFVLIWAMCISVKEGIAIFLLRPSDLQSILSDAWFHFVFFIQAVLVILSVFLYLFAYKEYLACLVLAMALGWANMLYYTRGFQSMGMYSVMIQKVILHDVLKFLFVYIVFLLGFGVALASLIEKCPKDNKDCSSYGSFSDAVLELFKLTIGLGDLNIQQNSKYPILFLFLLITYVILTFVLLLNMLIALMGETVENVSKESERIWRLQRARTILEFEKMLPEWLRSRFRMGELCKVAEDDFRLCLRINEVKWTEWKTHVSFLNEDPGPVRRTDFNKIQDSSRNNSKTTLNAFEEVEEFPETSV

IC50 [nM] | SMILES
> 20000 | O[C@H]1CCC[C@@H]1NCc1ccnc(-c2ccc(C(F)(F)F)cc2)n1 [Example 174, (1S,2S)-2-[({2-[4-(trifluoromethyl)phenyl]pyrimidin-4-yl}methyl)amino]cyclopentanol]
140 | CC(C)[C@H](CO)NCc1nc(C2=CCC(F)(F)CC2)ccc1F [Example 224, (2R)-2-({[6-(4,4-difluorocyclohex-1-en-1-yl)-3-fluoropyridin-2-yl]methyl}amino)-3-methylbutan-1-ol]
630 | Cc1ccc(S(=O)(=O)C(F)(F)F)cc1-c1ccc(F)c(CN[C@@H](CO)C(C)C)n1 [Example 59, (2R)-2-{[(3-fluoro-6-{2-methyl-5-[(trifluoromethyl)sulfonyl]phenyl}pyridin-2-yl)methyl]amino}-3-methylbutan-1-ol]
> 20000 | CC(C)[C@H](CO)NCc1ccnc(-c2ccc(C(F)(F)F)cc2)n1 [Example 91, (2R)-3-methyl-2-[({2-[4-(trifluoromethyl)phenyl]pyrimidin-4-yl}methyl)amino]butan-1-ol]
200 | CC(C)[C@H](CO)NCc1nc(-c2ccc(C(F)(F)F)cc2)ccc1F [Example 17, (2R)-2-[({3-fluoro-6-[4-(trifluoromethyl)phenyl]pyridin-2-yl}methyl)amino]-3-methylbutan-1-ol]
410 | OC[C@H](NCc1nc(-c2ccc(C(F)(F)F)cc2)ccc1F)C1CC1 [Example 29, (2R)-2-cyclopropyl-2-[({3-fluoro-6-[4-(trifluoromethyl)phenyl]pyridin-2-yl}methyl)amino]ethano 1]
> 20000 | OC[C@H](NCc1ccnc(-c2ccc(C(F)(F)F)nc2)n1)C1CC1 [Example 188, (2R)-2-cyclopropyl-2-[({2-[6-(trifluoromethyl)pyridin-3-yl]pyrimidin-4-yl}methyl)amino]ethanol]
730 | Cc1nc(-c2ccccc2)sc1-c1ccc(F)c(CN[C@@H](CO)C(C)C)n1 [Example 287, (2R)-2-({[3-fluoro-6-(4-methyl-2-phenyl-1,3-thiazol-5-yl)pyridin-2-yl]methyl}amino)-3-methylbutan-1-ol]
2920 | CC(C)[C@H](CO)NCc1cccc(-c2ccccc2)n1 [Example 225, (2R)-3-methyl-2-{[(6-phenylpyridin-2-yl)methyl]amino}butan-1-ol]
170 | CC(C)[C@H](CO)NCc1cccc(C#Cc2ccc(F)cc2)n1 [Example 264, (2R)-2-[({6-[(4-fluorophenyl)ethynyl]pyridin-2-yl}methyl)amino]-3-methylbutan-1-ol]
> 20000 | CC(C)[C@H](CO)NCc1nc(C2CCOCC2)ccc1F [Example 204, (2R)-2-({[3-fluoro-6-(tetrahydro-2H-pyran-4-yl)pyridin-2-yl]methyl}amino)-3-methylbutan-1-ol]
480 | CC(C)[C@H](CO)NCc1nc(-c2cccc(N3CCCC3)c2)ccc1F [Example 49, (2R)-2-[({3-fluoro-6-[3-(pyrrolidin-1-yl)phenyl]pyridin-2-yl}methyl)amino]-3-methylbutan-1-ol]
13500 | O=S(=O)(c1ccc(-c2nccc(CNC3(CO)CCCCC3)n2)cc1)C(F)(F)F [Example 208, (1-{[(2-{4-[(trifluoromethyl)sulfonyl]phenyl}pyrimidin-4-yl)methyl]amino}cyclohexyl)methanol]
> 20000 | OC(CCNCc1ccnc(-c2ccc(C(F)(F)F)cc2)n1)c1ccccc1 (stereo not shown) [Example 164, 1-phenyl-3-[({2-[4-(trifluoromethyl)phenyl]pyrimidin-4-yl}methyl)amino]propan-1-ol]
18500 | COCC(CO)NCc1ccnc(-c2ccc(S(=O)(=O)C(F)(F)F)cc2)n1 (stereo not shown) [Example 210, 3-methoxy-2-{[(2-{4-[(trifluoromethyl)sulfonyl]phenyl}pyrimidin-4-yl)methyl]amino}propan-1-ol]
160 | CC(C)[C@H](CO)NCc1nc(-c2cc(F)c(F)c(F)c2)ccc1F [Example 244, (2R)-2-({[3-fluoro-6-(3,4,5-trifluorophenyl)pyridin-2-yl]methyl}amino)-3-methylbutan-1-ol]
10900 | CC(C)[C@H](CO)NCc1nc(-c2ccc(C(=O)N3CCCC3)cc2)ccc1F [Example 276, {4-[5-fluoro-6-({[(2R)-1-hydroxy-3-methylbutan-2-yl]amino}methyl)pyridin-2-yl]phenyl}(pyrrolidin-1-yl)methanone]
190 | CC(C)[C@H](CO)NCc1cccc(C#Cc2ccc(F)c(F)c2)n1 [Example 265, (2R)-2-[({6-[(3,4-difluorophenyl)ethynyl]pyridin-2-yl}methyl)amino]-3-methylbutan-1-ol]
15600 | COCC(CO)NCc1ccnc(-c2ccc(C(F)(F)F)cc2)n1 (stereo not shown) [Example 144, 3-methoxy-2-[({2-[4-(trifluoromethyl)phenyl]pyrimidin-4-yl}methyl)amino]propan-1-ol]

IC50 [nM] | SMILES
510 | CC(C)[C@H](CO)NCc1nc(C#CC2CCCCC2)ccc1F [Example 240, (2R)-2-({[6-(cyclohexylethynyl)-3-fluoropyridin-2-yl]methyl}amino)-3-methylbutan-1-ol]
170 | CC(C)[C@H](CO)NCc1nc(-c2ccc(C(F)(F)F)s2)ccc1F [Example 290]
3470 | CC(C)[C@H](CO)NCc1nc(-c2cccc(C(=O)N3CCCCC3)c2)ccc1F [Example 45, {3-[5-fluoro-6-({[(2R)-1-hydroxy-3-methylbutan-2-yl]amino}methyl)pyridin-2-yl]phenyl}(piperidin-1-yl)methanone]
550 | CC(C)[C@H](CO)NCc1nc(-c2ccc(C(F)(F)F)cc2C(F)(F)F)ccc1F [Example 293, (2R)-2-[({6-[2,4-bis(trifluoromethyl)phenyl]-3-fluoropyridin-2-yl}methyl)amino]-3-methylbutan-1-ol]
> 20000 | OCC1(NCc2ccnc(-c3ccc(C(F)(F)F)cc3)n2)CCC1 [Example 132, {1-[({2-[4-(trifluoromethyl)phenyl]pyrimidin-4-yl}methyl)amino]cyclobutyl}methanol]
> 20000 | C[C@H](O)[C@@H](CO)NCc1ccnc(-c2ccc(C(F)(F)F)cc2)n1 [Example 151, (2R,3S)-2-[({2-[4-(trifluoromethyl)phenyl]pyrimidin-4-yl}methyl)amino]butane-1,3-diol]
700 | CC(C)Oc1ccc(F)c(-c2ccc(F)c(CN[C@@H](CO)C(C)C)n2)c1 [Example 23, (2R)-2-[({3-fluoro-6-[2-fluoro-5-(propan-2-yloxy)phenyl]pyridin-2-yl}methyl)amino]-3-methylbutan-1-ol]
> 20000 | C[C@@H](O)[C@@H](CO)NCc1ccnc(-c2ccc(C(F)(F)F)nc2)n1 [Example 191, (2R,3R)-2-[({2-[6-(trifluoromethyl)pyridin-3-yl]pyrimidin-4-yl}methyl)amino]butane-1,3-diol]
540 | CC[C@H](CO)NCc1nc(-c2ccc(C(F)(F)F)cc2)ccc1F [Example 77, (2R)-2-[({3-fluoro-6-[4-(trifluoromethyl)phenyl]pyridin-2-yl}methyl)amino]butan-1-ol]
750 | CC(C)Oc1cccc(-c2ccc(F)c(CN[C@@H](CO)C(C)C)n2)c1 [Example 24, (2R)-2-[({3-fluoro-6-[3-(propan-2-yloxy)phenyl]pyridin-2-yl}methyl)amino]-3-methylbutan-1-ol]
4000 | CC(C)[C@H](CO)NCc1nc(-c2cccc(C(=O)N3CCSCC3)c2)ccc1F [Example 62, {3-[5-fluoro-6-({[(2R)-1-hydroxy-3-methylbutan-2-yl]amino}methyl)pyridin-2-yl]phenyl}(thiomorpholin-4-yl)methanone]
520 | CC(C)[C@H](CO)NCc1nc(-c2cc3c(OCc4ccccc4)cccc3n2C(=O)OC(C)(C)C)ccc1F [Example 259, tert-butyl 4-(benzyloxy)-2-[5-fluoro-6-({[(2R)-1-hydroxy-3-methylbutan-2-yl]amino}methyl)pyridin-2-yl]-1H-indole-1-carboxylate]
140 | CC(C)[C@H](CO)NCc1nc(-c2ccc(F)c(F)c2)ccc1F [Example 228, (2R)-2-({[6-(3,4-difluorophenyl)-3-fluoropyridin-2-yl]methyl}amino)-3-methylbutan-1-ol]
790 | CC(C)[C@H](CO)NCc1nc(C2CCC(C(C)(C)C)CC2)ccc1F (stereo partly drawn) [Example 213, (2R)-2-({[6-(4-tert-butylcyclohexyl)-3-fluoropyridin-2-yl]methyl}amino)-3-methylbutan-1-ol]
910 | CC(C)[C@H](CO)NCc1cccc(OCc2ccccc2)n1 [Example 12, (2R)-2-({[6-(benzyloxy)pyridin-2-yl]methyl}amino)-3-methylbutan-1-ol]
3940 | O[C@H]1CCCC[C@@H]1NCc1nc(-c2ccc(C(F)(F)F)nc2)ccc1F [Example 122, (1S,2S)-2-({[5-fluoro-6′-(trifluoromethyl)-2,3′-bipyridin-6-yl]methyl}amino)cyclohexanol]
950 | CC(C)[C@H](CO)NCc1nc(-c2ccc(F)cn2)ccc1F [Example 36, (2R)-2-{[(5,5′-difluoro-2,2′-bipyridin-6-yl)methyl]amino}-3-methylbutan-1-ol]
1440 | CC(c1ccccc1)c1ccc(F)c(CN[C@@H](CO)C(C)C)n1 (stereo partly drawn) [Example 127, (2R)-2-({[3-fluoro-6-(1-phenylethyl)pyridin-2-yl]methyl}amino)-3-methylbutan-1-ol]
530 | CC(C)[C@H](CO)NCc1nc(C2CCC(F)(F)CC2)ccc1F [Example 203, (2R)-2-({[6-(4,4-difluorocyclohexyl)-3-fluoropyridin-2-yl]methyl}amino)-3-methylbutan-1-ol]

SMILES | IC50 [nM]
CC(C)[C@H](CO)NCc1cccc(-c2ccc([Si](C)(C)C(C)(C)C)s2)n1 [Example 227, (2R)-2-{[(6-{5-[tert-butyl(dimethyl)silyl]thiophen-2-yl}pyridin-2-yl)methyl]amino}-3-methylbutan-1-ol] | 1800
CCCCOc1ccc(-c2cccc(CN[C@@H](CO)C(C)C)n2)cc1Cl [Example 262, (2R)-2-({[6-(4-butoxy-3-chlorophenyl)pyridin-2-yl]methyl}amino)-3-methylbutan-1-ol] | 810
